Common to all, as to assay: NCI tumour cell line growth inhibition, 48 h
Assay [1] deals with 786-0.
Assay [2] relates to A498.
Assay [3] has as its system ACHN.
The subject of assay [4] is HL-60.
Assay [5] relates to HOP-62.
The test system of assay [6] is HT-29.
Assay [7] relates to IGROV-1.
Assay [8] deals with MDA-MB-231.
In assay [9] the test system is MDA-MB-435.
In assay [10] the test system is MOLT-4.
The test system of assay [11] is NCI-H460.
Assay [12] concerns PC-3.
The subject of assay [13] is RPMI-8226.
Assay [14] has as its system SK-MEL-28.
Assay [15] has as its system SK-MEL-2.
Assay [16] concerns SNB-75.
In assay [17] the test system is T47D.
For assay [18], the system named is NCI-H522.
For assay [19], the system named is NCI/ADR-RES.

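Results reflect a 48-hour exposure of cells in 96-well plates to compound at five concentrations. Here, GI50 denotes the concentration required for 50% inhibition of growth.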 Active and inactive are the calls of the source. Rule as the data show it: active = GI50 up to about 1.1 µM and inactive = higher.

Take `O=C(CN1CCOCC1)NC1=Nc2ncccc2C(=O)NN1`: the GI50 in assay [1], in assay [2], in [3], in assay [4], in assay [5] and in assay [6] was > 10 µM (inactive) throughout. In addition, the GI50 in assay [7], in [8], in [9], in [10], in assay [11] and in [12] was > 10 µM (inactive) in each case. The GI50 in [13], in assay [14], in assay [15], in [16] and in assay [17] was > 10 µM (inactive) throughout.

For `CCCCCCCCCCCCC(O)[C@H]1CC[C@H](C(O)CCCCCC(=O)CCCCC2CC(C(C)=O)C(=O)O2)O1` (stereo partly specified), the GI50 in [1] was 12.9 µM (inactive); in assay [2], 13.3 µM (inactive); in assay [3], 7.29 µM (inactive); in assay [4], 2.12 µM (inactive); in assay [5] it was 4.98 µM (inactive); in [6], 6.73 µM (inactive). For the same compound, the GI50 was 11 µM (inactive) in [7]; 11 µM (inactive) in assay [8]; 8.34 µM (inactive) in assay [9]; 3.03 µM (inactive) in assay [11]; 3.94 µM (inactive) in assay [18]; 3.44 µM (inactive) in [19]. The GI50 in assay [12] was 4.95 µM (inactive); in assay [13], 1.65 µM (inactive); in assay [14], 16.9 µM (inactive); in [15] it was 13.6 µM (inactive); in [16] it was 10.5 µM (inactive).

Consider `CCOC(=O)CN1C(=O)C(=O)N(c2ccc(OC)c3ccccc23)C1=O`, for which the GI50 was > 100 µM (inactive) in assay [1]; > 100 µM (inactive) in assay [3]; > 100 µM (inactive) in [4]; 68.5 µM (inactive) in assay [5]; > 100 µM (inactive) in assay [6]; > 100 µM (inactive) in assay [9]. In addition, the GI50 in assay [10], in assay [18], in assay [19], in assay [12], in assay [13] and in assay [14] was > 100 µM (inactive) in each case. Also, the GI50 in assay [15], in assay [16] and in [17] was > 100 µM (inactive) throughout.

Turning to `Oc1ccc(-c2nc3cc(F)ccc3s2)cc1`, the GI50 was 28.6 µM (inactive) in assay [1]; 20.3 µM (inactive) in assay [3]; 21.7 µM (inactive) in assay [4]; 24.7 µM (inactive) in assay [5]; 23.3 µM (inactive) in assay [6]; 17.5 µM (inactive) in assay [7]. Also, the GI50 in [9] is 20 µM (inactive); in [10], 10.4 µM (inactive); in assay [11], 19.3 µM (inactive); in assay [18] it was 15.3 µM (inactive); in assay [19], 20 µM (inactive); in assay [12] it was 22.9 µM (inactive). Further, the GI50 is 24 µM (inactive) in assay [13], 21.6 µM (inactive) in [14], 19.1 µM (inactive) in [15] and 5.22 µM (inactive) in assay [17].

Consider `O=C1CC[C@@]2(O)[C@H]3Cc4ccc(-c5cccc(O)c5)c5c4[C@@]2(CCN3CC2CC2)[C@H]1O5`, for which the GI50 was 18.2 µM (inactive) in assay [1]; 21.3 µM (inactive) in [2]; 25.4 µM (inactive) in assay [3]; 0.0553 µM (active) in assay [4]; 24.8 µM (inactive) in assay [5]; 11.3 µM (inactive) in assay [6]. In addition, the GI50 was 23.6 µM (inactive) in assay [7]; 22.4 µM (inactive) in assay [8]; 14 µM (inactive) in [9]; 22.9 µM (inactive) in assay [10]; 0.839 µM (active) in [11]; 16.1 µM (inactive) in [18]. Further, the GI50 was 15.8 µM (inactive) in assay [19]; 20.3 µM (inactive) in [12]; 23.3 µM (inactive) in assay [13]; 32.2 µM (inactive) in assay [14]; 1.51 µM (inactive) in [15].

In the case of `CC(C)(C)CNCCCNc1ccc(Cl)cc1`, the GI50 was 82.2 µM (inactive) in assay [1]; 14.8 µM (inactive) in assay [2]; > 100 µM (inactive) in assay [3]; < 0.01 µM (active) in assay [4]; 97.1 µM (inactive) in assay [5]; 20.2 µM (inactive) in assay [6]. In addition, the GI50 in assay [7] is 58.1 µM (inactive); in assay [8] it was 23.2 µM (inactive); in [9] it was 30.1 µM (inactive); in assay [10] it was 3.33 µM (inactive); in [11], 37.2 µM (inactive); in [18], 24.1 µM (inactive). Also, the GI50 was > 100 µM (inactive) in assay [19]; 51.3 µM (inactive) in assay [12]; 21.2 µM (inactive) in assay [13]; 20.9 µM (inactive) in assay [14]; 24 µM (inactive) in assay [15].

As to `O=C(O[C@H]1CCN2C[C@H]3C[C@H](CN4C(=O)CCC[C@H]34)[C@@H]2C1)c1ccc(O)cc1`, the GI50 in assay [1], in [2], in [3], in assay [5], in assay [6] and in [7] was > 100 µM (inactive) in each case. The GI50 in assay [8], in [9], in assay [11], in assay [18], in [12] and in assay [13] was > 100 µM (inactive) in each case. The GI50 in assay [14], in assay [15], in assay [16] and in [17] was > 100 µM (inactive) each time.

Take `CCN1c2nc3ccccc3nc2N(CC)c2nc3ccccc3nc21`: the GI50 in assay [1] was 46.1 µM (inactive); in assay [2] it was 57.3 µM (inactive); in assay [3] it was 39.1 µM (inactive); in assay [4], 34.7 µM (inactive); in [6] it was 39.5 µM (inactive); in [7] it was 23.2 µM (inactive). In addition, the GI50 in assay [8] was 70.8 µM (inactive); in assay [9], 42.3 µM (inactive); in assay [10], 41.8 µM (inactive); in assay [11] it was 32.9 µM (inactive); in assay [18], 49.5 µM (inactive); in assay [19] it was 63.8 µM (inactive). For the same compound, the GI50 in [12] is 61.5 µM (inactive); in assay [13] it was 34.5 µM (inactive); in assay [14], 46.5 µM (inactive); in assay [15], > 100 µM (inactive); in assay [16] it was > 10 µM (inactive).

As for `CCN(CC)C1Oc2cc3c(cc2C(c2ccc(OC)cc2)C1C)OCO3` (stereo unspecified), the GI50 in [1] is 21.7 µM (inactive); in assay [2] it was 19.7 µM (inactive); in assay [3], 22.5 µM (inactive); in assay [5], 24.8 µM (inactive); in assay [6], 18.7 µM (inactive); in assay [7] it was 29.5 µM (inactive). Besides, the GI50 was 23.4 µM (inactive) in assay [8]; 18.9 µM (inactive) in [9]; 17.6 µM (inactive) in assay [10]; 17.1 µM (inactive) in [11]; 15 µM (inactive) in assay [18]; 23.8 µM (inactive) in assay [12]. Besides, the GI50 is 17 µM (inactive) in assay [13]; 20.4 µM (inactive) in assay [14]; 17.6 µM (inactive) in assay [15]; 20.3 µM (inactive) in assay [16]; 26.9 µM (inactive) in assay [17].

In the case of `O=C(Nc1cccc(F)c1)c1cc2ccc(O)cc2o/c1=N\c1cccc(F)c1`, the GI50 is 7.85 µM (inactive) in [1]; 33 µM (inactive) in [2]; 4.88 µM (inactive) in [3]; 2.65 µM (inactive) in assay [4]; 27.9 µM (inactive) in assay [5]; > 100 µM (inactive) in [6]. The GI50 in assay [7] is 2.08 µM (inactive); in assay [9], 5.12 µM (inactive); in assay [10], 2.45 µM (inactive); in assay [11], 4.26 µM (inactive); in [18], 2.99 µM (inactive); in assay [19] it was 3.4 µM (inactive). The GI50 is 17.9 µM (inactive) in assay [12]; 2.87 µM (inactive) in assay [13]; 5.09 µM (inactive) in assay [14]; 8.2 µM (inactive) in assay [15]; 3.27 µM (inactive) in assay [17].

For `O=c1[nH]c(=O)n(COCc2ccccc2)c2ccc([N+](=O)[O-])cc12`, the GI50 in [1] was 80 µM (inactive); in [2] it was > 100 µM (inactive); in assay [3], 25.6 µM (inactive); in [4], > 100 µM (inactive); in assay [6] it was > 100 µM (inactive); in assay [7] it was > 100 µM (inactive). Further, the GI50 in assay [8] was > 100 µM (inactive); in assay [9] it was > 100 µM (inactive); in assay [10] it was > 100 µM (inactive); in [19], 4.85 µM (inactive); in assay [12] it was > 100 µM (inactive); in assay [14] it was > 100 µM (inactive). The GI50 in assay [15] and in [16] was > 100 µM (inactive) each time.

For the compound `COc1cc(OCc2ccccc2)c2c(CCC(=O)O)cc(=O)oc2c1.COc1cc(OCc2ccccc2)cc2oc(=O)cc(CCC(=O)O)c12`, the GI50 in assay [1] was 92.5 µM (inactive); in assay [2], 14.7 µM (inactive); in [3], 37.5 µM (inactive); in assay [4], 34.1 µM (inactive); in assay [6] it was 36.7 µM (inactive); in assay [7], 51.2 µM (inactive). Further, the GI50 in assay [8] is 29.1 µM (inactive); in [9], 61.7 µM (inactive); in assay [10] it was 28.1 µM (inactive); in assay [18], 42.5 µM (inactive); in assay [19], 52.7 µM (inactive); in assay [12], 56.8 µM (inactive). Besides, the GI50 in assay [13] is 57.3 µM (inactive); in assay [14] it was 42.3 µM (inactive); in assay [15], 30.1 µM (inactive); in assay [16] it was 60.1 µM (inactive).

For the origin of these results see ChEMBL document CHEMBL1201862, “PubChem BioAssay data set” (2004).
